# Data reported in patent publication US5208243A, “5-isoquinolinesulfonamides” (Adir et Compagnie, priority 1991, dated 1993).
# What was measured:
# guinea pig left auricle [1] = test: Ouabain intoxication of guinea pig left auricle; details: compound 10^-5 M
# rabbit aorta [2] = test: Contraction of rabbit aorta induced by noradrenaline in a normal physiological medium; design: species or system New Zealand rabbit; details: Oryctolagus cuniculus, noradrenaline 10^-6 M, read-out: IC50, noradrenaline stimulus
# Description: (§1) Studies are carried out on rings, 3 mm in length, […] The vascular rings are immersed in a normal physiological solution or in a physiological solution lacking calcium (+0.2 mM of the chelating agent EGTA), which is thermostatically regulated at 37° C. and aerated with a 95% O2 +5% CO2 mixture. The rings are linked to a STATHAM tension sensor (UC2-GOULD). The optimal tension for each vessel is applied and a stabilization period of 90 min is observed for the preparations. a) Antivasoconstrictive activity of the compounds of the invention in a physiological medium.
# Rabbit iliac artery = test: Contraction of rabbit iliac artery induced by caffeine in a medium without calcium; design: species or system New Zealand rabbit; details: Oryctolagus cuniculus, 10^-5 M, medium lacking calcium
# Description: (§2) Studies are carried out on rings, 3 mm in length, […] The vascular rings are immersed in a normal physiological solution or in a physiological solution lacking calcium (+0.2 mM of the chelating agent EGTA), which is thermostatically regulated at 37° C. and aerated with a 95% O2 +5% CO2 mixture. The rings are linked to a STATHAM tension sensor (UC2-GOULD). The optimal tension for each vessel is applied and a stabilization period of 90 min is observed for the preparations. b) Antivasoconstrictive activity of the compounds of the invention in a medium without calcium.
# [3] = tested on: smooth muscle cells of the aorta; test: Proliferation rate after endothelial denudation of the aorta (3H-thymidine incorporation); format: in vivo, WISTAR rat; details: 10 mg/kg orally, daily
# Description: D/ Effect of the compounds of the invention on the proliferation rate after endothelial denudation. […] After pretreatment for 6 days (J6), denudation of the aortic endothelium of the animals is performed according to the following method: After anesthetizing the animal with methohexital (Brietal, 60 mg/kg intraperitoneally), an embolectomy probe (Fogarty 2F) is introduced into the aorta through the left carotid. Aortic deendothelialization is achieved by three successive passages of the probe. Three days after the endothelial denudation (J9), the rats are sacrificed and the aorta is removed, incubated in a physiological solution for 1 hour at 37° C., and then transferred into a ^3 H-thymidine-enriched Krebs- Henseleit solution (specific activity: […]) for 1 hour at 37° C. This is followed by a one-hour post-incubation in a Krebs-Henseleit solution lacking ^3 H-thymidine. After washing in a Tris-EDTA buffer, the proliferation rate is calculated from the incorporation of 3H-thymidine. [drawing 17]
# rabbit aorta [4] = test: Contraction of rabbit aorta induced by phorbol ester in a medium without calcium; design: species or system New Zealand rabbit; details: Oryctolagus cuniculus, 10^-5 M, medium lacking calcium
# Description: as §2
# rabbit mesenteric artery = test: Contraction of rabbit mesenteric artery induced by electrical stimulation; design: species or system New Zealand rabbit; details: Oryctolagus cuniculus, normal physiological medium
# Description: as §1
# rat aortas = test: Contraction of rat aortas induced by potassium depolarization (hyperpotassium medium); design: species or system WISTAR rat; details: read-out: IC50 (concentration inhibiting by 50% the contraction of rat aortas induced by potassium depolarization)
# From the text: The rings are linked to a STATHAM tension sensor (UC2-GOULD).
# rabbit aorta [5] = test: Contraction of rabbit aorta induced by angiotensin II in a medium without calcium; design: species or system New Zealand rabbit; details: Oryctolagus cuniculus, 10^-5 M, medium lacking calcium
# Description: as §2
# rabbit aorta [6] = test: Contraction of rabbit aorta induced by endothelin in a medium without calcium; design: species or system New Zealand rabbit; details: Oryctolagus cuniculus, 10^-5 M, medium lacking calcium
# Description: as §2
# rabbit aorta [7] = test: Contraction of rabbit aorta induced by endothelin in a normal physiological medium; design: species or system New Zealand rabbit; details: Oryctolagus cuniculus, read-out: IC50, endothelin stimulus
# Description: as §1
# rabbit aortas = test: Contraction of rabbit aortas induced by noradrenaline in a medium without calcium; design: species or system New Zealand rabbit; details: Oryctolagus cuniculus, 0.5 h, rabbit aorta, incubated 30 minutes
# guinea pig left auricle [8] = test: Veratridine intoxication of guinea pig left auricle; details: compound 10^-5 M
# Description: a) Effect of the compounds of the invention on the intoxication of guinea pig left auricle.
# The left auricles are removed from guinea pigs (350-450 g) anesthetized with sodium pentobarbital (30 mg/kg). The auricles are attached to a STATHAM tension sensor (UC2-GOULD) and the initial tension applied is 0.5 grams.
# The auricles are electrically stimulated at 1 Hz by means of platinum electrodes. The intoxications are produced either by the addition of ouabain (10^-6 M) or by the addition of veratridine (10^-5 M). The test compounds are added 15 minutes before adding the toxic agent.
# rabbit aorta [9] = test: Vascular contraction of rabbit aorta induced by PDGF; design: species or system New Zealand rabbit; details: Oryctolagus cuniculus, 10^-5 M, preincubated 15 minutes
# Description: as §1
# [10] = tested on: pressor effects of phenylephrine, angiotensin II and vasopressin; test: Cardiovascular reactivity to vasopressors in wakeful rats, intravenous administration; format: in vivo, WISTAR rat; details: 10 mg/kg intravenously
# Description: a) Effects of the compounds of the invention, administered intravenously, on cardiovascular reactivity to various vasopressors.
# After a 30 to 60 min period of stabilization of wakeful WISTAR rats, a range of concentrations of phenylephrine (between 0 and 16 μg/kg) is injected intravenously.
# Reading of the mean blood pressure and heart rate is carried out at the point where the pressor effect reaches its maximum. After a washing time of at least 2 hours, the test compound is administered intravenously (10 mg/kg) followed 15 minutes later by a new range of phenylephrine.
# The same procedure is used to study the compounds of the invention for the pressor effects induced by angiotensin II (0 to 200 ng/kg) and vasopressin (0 to 200 ng/kg). These studies are carried out on different groups of animals.
# reperfusion arrhythmias = test: Reperfusion arrhythmias after coronary ligature in rats; format: in vivo, WISTAR rat; details: 2 mg/kg intravenous
# Description: C/ Action of the compounds of the invention on reperfusion arrhythmias.
# A thoracotomy and a coronary ligature are carried out on WISTAR rats. After stabilization for 10 min, 2 mg/kg of the test compound are administered intravenously. The blood pressure, the heart rate and the electrocardiogram are recorded. Five minutes after injecting the product, the coronary ligature is tightened.
# After 5 minutes of stenosis, the ligature is removed and the electrocardiogram as well as the blood pressure are recorded for 10 consecutive minutes. The delay in the appearance of the various rhythm disorders as well as the mortality are measured.
smiles,measurement,setting,value
"CN(CC1CCN(CCCOc2ccc(F)cc2)CC1)S(=O)(=O)c1cccc2cnccc12.Cl.Cl [Example 17, N-Methyl-N-{[1-[3-(p-fluorophenoxy)propyl]-4-piperidyl]methyl}-5-isoquinolinesulfonamide dihydrochloride]",% contraction,guinea pig left auricle [1]; 10 min,201.5 ± 31.5%
same,Contracture (%),guinea pig left auricle [1]; 15 min,0%
same,% contraction,guinea pig left auricle [1]; 30 min,186.5 ± 46%
same,Contracture (%),guinea pig left auricle [1]; 30 min,2.5 ± 2.5%
same,% contraction,guinea pig left auricle [1]; 60 min,179 ± 44%
same,Contracture (%),guinea pig left auricle [1]; 60 min,5 ± 3.3%
same,IC50,rabbit aorta [2],1.5 µM
same,inhibition at 10 µM,Rabbit iliac artery,63%
same,reduction of the proliferation of smooth muscle cells,[3],40%
same,inhibition at 10 µM,rabbit aorta [4],35%
same,IC50,rabbit mesenteric artery,0.1 µM
same,IC50,rat aortas,1.5 µM
same,inhibition at 10 µM,rabbit aorta [5],21%
same,inhibition at 10 µM,rabbit aorta [6],67%
same,IC50,rabbit aorta [7],3.3 µM
same,inhibition at 1 µM,rabbit aortas; compound 10^-6 M,90%
same,inhibition at 0.1 µM,rabbit aortas; compound 10^-7 M,40%
same,% contraction,guinea pig left auricle [8]; 5 min,218.8 ± 50.8%
same,% contraction,guinea pig left auricle [8]; 15 min,181 ± 51%
same,Contracture (%),guinea pig left auricle [8]; 15 min,0%
same,Contracture (%),guinea pig left auricle [8]; 30 min,0%
same,% contraction,guinea pig left auricle [8]; 60 min,157.1 ± 42.6%
same,Contracture (%),guinea pig left auricle [8]; 60 min,0%
same,inhibition at 10 µM,rabbit aorta [9],30%
same,reduction of the pressure effect of phenylephrine,[10],81%
same,delay in the appearance of ventricular extrasystoles and tachycardias,reperfusion arrhythmias,very substantially delays the appearance of ventricular extrasystoles and tachycardias
same,prevention of the appearance of ventricular fibrillations,reperfusion arrhythmias,100%
same,mortality rate,reperfusion arrhythmias; control 4 deaths out of 9,zero
